According to patent publication US20100275276A1, “ZEBRAFISH MODEL FOR ASSESSING GASTROINTESTINAL MOTILITY” (THE RESEARCH FOUNDATION OF STATE UNIVERSITY OF NEW YORK, priority 2006, published 2010):
Counter-ions that a name gives are not always drawn. Like-named read-outs stand apart in the source and are kept apart here.

Tests used:
zebrafish larvae [1] = assay: Fluorescent microsphere spectrophotometric assay of propulsive GI motility; type: in vivo; conditions: for Reduction of fluorescence intensity: 11 dpf larvae, one day after loading; for Total fluorescence intensity one day after loading: 11 day old larvae, 10^−5 mg/ml, n=5
Source text: Gastrointestinal (GI) motility disorders such as constipation and dyspepsia are common, but current treatment options are largely ineffective, primarily due to a limited understanding of GI motility. The broad objective is to develop a new zebrafish-based model system for GI motility. Muscular contractions of the GI tract may be directly observed in a zebrafish larva, and GI motility has been quantified as contraction frequency. […] The specific objective of this project is to develop an assay to specifically measure propulsion of luminal contents. […] A decrease in fluorescence emission would indicate that ingested microspheres have been eliminated via propulsive motility. Fluorescence spectroscopy was used to quantify the fluorescence intensity as a function of time.
Total fluorescence emission averaged 62,630±23,780 counts per sec (n=5 samples, 5 larvae grouped per sample) immediately after ingestion in 11 day old larvae. One day later total fluorescence intensity averaged 53,277±6,333 counts per sec, a 15% decrease (n=5, P<0.05). […] Two prokinetic agents, erythromycin and 5-hydroxytryptamine (10^−5 mg/ml), were used to validate the assay. One day after loading, the total fluorescence intensity decreased after application of erythromycin (69,782±10,423, n=5, P<0.09) and with 5 HT (86,820±21,850, n=5, P<0.003).
After larvae spontaneously ingest the fluorescent micro spheres, which were suspended in the medium that the larvae are in, the larvae were washed and separated into 2 groups. The first group was sacrificed and mashed. The total fluorescence emission was measured from the ‘mashed’ larvae. The second group was sacrificed some time later. If GI motility is functional then some fraction of the micro spheres will have been excreted as a result of GI propulsive motility. The second group was sacrificed and mashed and total fluorescence emission was measured.
The difference between Group 1 and Group 2 represents the fraction of beads that has been excreted and this difference is a measure of functional GI propulsive motility.

zebrafish larvae [2] = assay: Spatiotemporal mapping of spontaneous GI motility; type: in vivo; conditions: 11 dpf larvae treated with 50 μM Gleevec
Source text: Spontaneous GI motility occurs at regular intervals and propagates along the GI tract at 11 dpf when ICC are fully present in the GI tract.
This Example uses digital imaging and image processing techniques to quantify coordinated GI motility. […] These types of motility can be distinguished in time-lapse digital images.
This Example uses a technique, spatiotemporal mapping, that converts a series of images into a single image with dimensions of time and distance. This single image supplies data on movement, and therefore propagation contractions can be visualized and quantified.

zebrafish larvae [3] = tested on: zebrafish larvae
[4] = 14 dpf Gleevec treated larvae, Table 1 of Example 8
[5] = 14 dpf Gleevec treated larvae, per 300 second interval, Table 1 of Example 8
[6] = 14 dpf larvae, imatinib mesylate 50 μM added at 5 dpf, n = 3
[7] = imatinib mesylate 50 μM added at 5 dpf

| Compound | Reduction of fluorescence intensity (zebrafish larvae [1]) [%] | Total fluorescence intensity one day after loading (zebrafish larvae [1]) | Spontaneous motility (spatiotemporal map) (zebrafish larvae [2]) | Distance (zebrafish larvae [3]; [4]) [μm] | Velocity (zebrafish larvae [3]; [4]) [μm/sec] | Total # contractions, Average (zebrafish larvae [3]; [5]) | Total # contractions, Total (zebrafish larvae [3]; [5]) | Distance (zebrafish larvae [3]; [6]) [μm] | Velocity (zebrafish larvae [3]; [6]) [μm/sec] | Total # contractions/300 sec (zebrafish larvae [3]; 14 dpf larvae, imatinib mesylate 50 μM added to medium at 5 dpf, n = 3) [contractions/300 sec] | Contractions in treated 14 dpf larvae (description) (zebrafish larvae [3]; Gleevec treated 14 dpf larvae) | Character of the remaining contractions (zebrafish larvae [3]; [7]) | Effect on number of contractions (zebrafish larvae [3]; [7]) |
| --- | --- | --- | --- | --- | --- | --- | --- | --- | --- | --- | --- | --- | --- |
| CC[C@H]1OC(=O)[C@H](C)[C@@H](O[C@H]2C[C@@](C)(OC)[C@@H](O)[C@H](C)O2)[C@H](C)[C@@H](O[C@@H]2O[C@H](C)C[C@H](N(C)C)[C@H]2O)[C@](C)(O)C[C@@H](C)C(=O)[C@H](C)[C@@H](O)[C@]1(C)O [erythromycin] | 23 | 69,782±10,423 counts per sec | – | – | – | – | – | – | – | – | – | – | – |
| NCCc1c[nH]c2ccc(O)cc12 [5-hydroxytryptamine] | 53 | 86,820±21,850 counts per sec | – | – | – | – | – | – | – | – | – | – | – |
| Cc1ccc(NC(=O)c2ccc(CN3CCN(C)CC3)cc2)cc1Nc1nccc(-c2cccnc2)n1 [imatinib mesylate] | – | – | absent | 399.8 ± 67.2 | 10.2 ± 3.1 | 2.3 ± 0.58 | 7 | 399.8 ± 67.2 | 10.2 ± 3.1 | 7 | few contractions which were variable and did not fully propagate | unorganized, shorter and slower | decrease in the number of contractions |
